Laboratory results as given in patent publication US10570117B2, “Phenylimidazole compound” (Otsuka Pharmaceutical Factory, Inc., priority 2015, dated 2020).
Values after ≈ are worked out from the molar mass of the structure shown. Like-named read-outs stand apart in the source and are kept apart here.

Columns and labels:
[1] = test system: lipoprotein lipase (LPL) gene; assay: LPL mRNA elevating action (RT-PCR quantification of LPL mRNA in C2Cl2 cells); format: cell-based, mouse; details: Mus musculus, 24 h, compound 10 μM, ratio relative to the amount of LPL mRNA in cells with DMSO only, read-out: Rate of increase in LPL mRNA
Procedure, shortened: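 Read-out is LPL mRNA relative to vehicle (DMSO = 1), measured by reverse transcription and 20-cycle real-time PCR. Cells were the mouse striated-muscle line C2Cl2, treated 24 h with 10 μM compound in DMEM containing 10% FBS.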

[2] = Solubility in gastric juice or intestinal juice model fluid (precipitation method using DMSO); format: physicochemical; details: room temperature
Procedure, shortened: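 Dissolved amount (μg/mL) quantified by UV of filtrate versus pre-made calibration curves. Precipitation approach: DMSO solutions spiked into pH 1.2 (JP 1st fluid) or pH 6.8 (JP 2nd fluid) medium, shaken at room temperature for 24 h before insolubles were filtered off.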

[3] = pH 1.2, simulated gastric fluid, kinetic from dmso stock, 1st fluid for Disintegration Test of Japanese Pharmacopoeia (pH: 1.2), read-out: Solubility (μg/mL) 1st fluid
[4] = pH 6.8, kinetic from dmso stock, 2nd fluid for Disintegration Test of Japanese Pharmacopoeia (pH: 6.8), read-out: Solubility (μg/mL) 2nd fluid

| Structure (SMILES) | fold induction at 10 µM [1] | solubility at 24 h [2, 3] [µg/mL] | solubility at 24 h [2, 4] [µg/mL] | melting point |
| --- | --- | --- | --- | --- |
| COc1cc(OCc2ccc(C(F)(F)F)cn2)ccc1-c1c(Br)nc(-c2ccc(Cl)nc2)n1C [Example 301] | 2.99 | 15.1 (≈ 27.3 µM) | < 0.4 | 125 to 127 °C |
| COc1cc(OCc2ncc(Br)cc2F)ccc1-c1[nH]c(-c2ccc(F)nc2)nc1Br [Example 268] | 2.53 | 13.8 (≈ 25 µM) | 6.6 (≈ 12 µM) | 179 to 181 °C |
| Oc1ccc(-c2cnc(-c3ccc(F)nc3)[nH]2)c(Cl)c1 [Example 359] | 1.75 | 57.3 (≈ 198 µM) | 52.8 (≈ 182 µM) | 223 to 225 °C |
| Cc1cc(OCc2ncc(C(F)(F)F)cc2F)ccc1-c1cnc(-c2ccc(F)nc2)[nH]1 [Example 351] | 4.12 | 85.9 (≈ 192 µM) | 7 (≈ 15.7 µM) | 216 to 222 °C |
| COc1cc(-c2[nH]c(C3CCC(F)(F)CC3)nc2Cl)ccc1OCc1ncc(C(F)(F)F)cc1F [Example 326] | 2.63 | 63.7 (≈ 123 µM) | 0.7 (≈ 1.35 µM) | 173 to 176 °C |
| COc1cc(OCc2ncccc2C(F)(F)F)ccc1-c1c[nH]c(-c2ccc(Cl)nc2)n1 [Example 43] | 3.48 | 16.2 (≈ 35.2 µM) | 3.4 (≈ 7.38 µM) | 185 to 187 °C |
| COc1cc(OCc2coc(C)n2)ccc1-c1cnc(C2CCC(F)(F)CC2)[nH]1 [Example 13] | 2.31 | > 81 | 74 (≈ 183 µM) | 52 to 63 °C |
| COc1cc(OCc2ncccc2C(F)(F)F)ccc1-c1[nH]c(C2CCC(F)(F)CC2)nc1Cl [Example 195] | 3.34 | > 100 | 0.6 (≈ 1.2 µM) | 162 to 164 °C |
| COc1cc(OCc2ncc(C(F)(F)F)cc2F)ccc1-c1cnc(C2CCC(F)(F)CC2)[nH]1 [Example 335] | 2.37 | 93.4 (≈ 192 µM) | 6.6 (≈ 13.6 µM) | 105 to 110 °C |
| COc1cc(OCc2ncc(Cl)cc2F)ccc1-c1[nH]c(-c2ccc(F)nc2)nc1Br [Example 267] | 2.66 | 17.7 (≈ 34.9 µM) | 0.4 (≈ 0.788 µM) | 175 to 178 °C |
| COc1cc(OCc2cccnc2C(F)(F)F)ccc1-c1cnc(-c2ccc(Cl)nc2)[nH]1 [Example 108] | 3.03 | 4.1 (≈ 8.9 µM) | < 0.3 | 231 to 233 °C |
| CCOC(C)n1c(-c2ccc(F)nc2)nc(-c2ccc(OCc3ccc(C(F)(F)F)nc3)cc2OC)c1I (centres unmarked) [Example 330] | 1.88 | 6.5 (≈ 10.1 µM) | 0.9 (≈ 1.4 µM) | 129 to 131 °C |
| COc1cc(OCc2ncc(C(F)(F)F)cc2F)ccc1-c1[nH]c(CCC(F)(F)F)nc1Cl [Example 394] | 2.39 | 96.3 (≈ 193 µM) | < 0.4 | 154 to 159 °C |
| COc1cc(-c2[nH]c(-c3ccc(F)nc3)nc2Cl)ccc1OCc1ncc(C(F)(F)F)cc1F [Example 325] | 2.44 | 4.7 (≈ 9.46 µM) | 1.3 (≈ 2.62 µM) | 165 to 170 °C |
| COc1cc(OCc2cccnc2C(F)(F)F)ccc1-c1cnc(-c2ccc(F)nc2)[nH]1 [Example 112] | 2.39 | 12 (≈ 27 µM) | 2.1 (≈ 4.73 µM) | 187 to 190 °C |
| COc1cc(OCc2ccc(C(F)(F)F)nc2)ccc1-c1[nH]c(C2CCC(F)(F)CC2)nc1C [Example 6] | 4.44 | 91.5 (≈ 190 µM) | 47 (≈ 97.6 µM) | 167 to 169 °C |
| COc1cc(OCc2ccc(C(F)(F)F)cc2)ccc1-c1nc(-c2ccc(Cl)cn2)[nH]c1C [Example 34] | 2.22 | 17 (≈ 35.9 µM) | < 0.3 | 170 to 173 °C |
| COc1cc(OCc2ncc(C(F)(F)F)cc2F)ccc1-c1cnc(CCC(F)(F)F)[nH]1 [Example 390] | 2.09 | 49.5 (≈ 107 µM) | 21.6 (≈ 46.6 µM) | 76 to 91 °C |
| COc1cc(OCc2ccc(C(F)(F)F)nc2)ccc1-c1nc(-c2ccc(Cl)nc2)n(CC2CC2)c1C [Example 154] | 5.78 | 104 (≈ 196 µM) | 2 (≈ 3.78 µM) | 110 to 112 °C |

| Structure (SMILES) | fold induction at 10 µM [1] | solubility at 24 h [2, 3] [µg/mL] | solubility at 24 h [2, 4] [µg/mL] | melting point |
| --- | --- | --- | --- | --- |
| COc1cc(-c2[nH]c(C3CCC3)nc2Cl)ccc1OCc1ccc(C(F)(F)F)cn1 [Example 193] | 4.32 | 86.4 (≈ 197 µM) | 0.8 (≈ 1.83 µM) | 158 to 170 °C |
| COc1cc(OCc2ccc(C(F)(F)F)cn2)ccc1-c1nc(-c2ccc(Cl)nc2)n(CC2CC2)c1Cl [Example 294] | 2.42 | 104 (≈ 189 µM) | 2.4 (≈ 4.37 µM) | 123 to 126 °C |
| Fc1ccc(-c2nc(Cl)c(-c3ccc(OCc4ncc(C(F)(F)F)cc4F)cc3Cl)[nH]2)cn1 [Example 361] | 5.51 | 3.4 (≈ 6.78 µM) | < 0.4 | 158 to 160 °C |
| COc1cc(OCc2cnccn2)ccc1-c1nc(-c2ccc(Cl)nc2)[nH]c1Cl [Example 230] | 1.58 | 7.2 (≈ 16.8 µM) | < 0.3 | 172 to 174 °C |
| CCSc1ccc(-c2ncc(-c3ccc(OCc4ncc(C(F)(F)F)cc4F)cc3OC)[nH]2)cn1 [Example 357] | 3.59 | 7.8 (≈ 15.5 µM) | < 0.3 | 145 to 149 °C |
| Fc1ccc(-c2ncc(-c3ccc(OCc4ncc(C(F)(F)F)cc4F)cc3Cl)[nH]2)cn1 [Example 360] | 3.93 | 90.7 (≈ 194 µM) | 0.6 (≈ 1.29 µM) | 169 to 171 °C |
| COc1cc(OCc2ccc(C(F)(F)F)nc2)ccc1-c1nc(-c2ccc(Cl)nc2)n(C)c1C [Example 152, 2-chloro-5-[4-[2-methoxy-4-((6-(trifluoromethyl)pyridin-3-yl)methoxy)phenyl]-1,5-dimethyl-1H-imidazol-2-yl]pyridine] | 3.3 | > 98 | < 0.3 | 185 to 188 °C |
| COc1cc(OCc2cnc(C)cn2)ccc1-c1c[nH]c(-c2ccc(Cl)nc2)n1 [Example 22] | 2.22 | 7.5 (≈ 18.4 µM) | 1.6 (≈ 3.92 µM) | 199 to 201 °C |
| COc1cc(OCc2ncc(C(F)(F)F)cc2F)ccc1-c1[nH]c(C2CCC(F)(F)C2)nc1Cl (centres unmarked) [Example 346] | 3.18 | 99.1 (≈ 196 µM) | < 0.4 | 147 to 149 °C |
| COc1cc(OCc2ccc(C(F)(F)F)cn2)ccc1-c1c(C)nc(-c2ccc(Cl)nc2)n1CC1CC1 [Example 157] | 4.05 | 106 (≈ 199 µM) | 1.9 (≈ 3.59 µM) | 145 to 148 °C |
| COc1cc(OCc2cnc(Cl)s2)ccc1-c1cnc(-c2ccc(F)nc2)[nH]1 [Example 321] | 1.82 | 69.4 (≈ 166 µM) | 1.9 (≈ 4.56 µM) | 109 to 116 °C |
| COc1cc(OCc2cccc(C#N)n2)ccc1-c1c[nH]c(C2CCCCC2)n1 [Example 55] | 4.24 | > 78 | 2.3 (≈ 5.92 µM) | 182 to 187 °C |
| COc1cc(OCc2ncc(C(F)(F)F)cc2F)ccc1-c1[nH]c(C(C)C)nc1Cl [Example 385] | 3.18 | 84.7 (≈ 191 µM) | 2.1 (≈ 4.73 µM) | 131 to 135 °C |
| COc1cc(O)ccc1-c1c[nH]c(-c2ccc(F)nc2)n1 [Example 109, 4-[2-(6-fluoropyridin-3-yl)-1H-imidazol-5-yl]-3-methoxyphenol] | 1.76 | > 57 | 40 (≈ 140 µM) | 249 to 251 °C (dec.) |
| COc1cc(OCc2ccc(C(F)(F)F)nc2)ccc1-c1[nH]c(-c2ccc(F)nc2)nc1I [Example 329] | 2.96 | 5.8 (≈ 10.2 µM) | 13.6 (≈ 23.8 µM) | 195 to 208 °C |
| COc1cc(OCc2ccc(C(F)(F)F)nc2)ccc1-c1cnc(C2CCC(F)(F)CC2)[nH]1 [Example 17] | 3.2 | > 93 | 3 (≈ 6.42 µM) | 62 to 72 °C |
| COc1cc(OCc2ncc(F)cc2F)ccc1-c1[nH]c(-c2ccc(Cl)nc2)nc1Cl [Example 247] | 2.25 | 8.4 (≈ 18.1 µM) | 5.3 (≈ 11.4 µM) | 187 to 190 °C |
| COc1cc(OCc2ccc(C(F)(F)F)cn2)ccc1-c1c[nH]c(-c2ccc(Cl)cn2)n1 [Example 42] | 2.27 | 8.6 (≈ 18.7 µM) | 2.3 (≈ 4.99 µM) | 147 to 150 °C |
| COc1cc(-c2[nH]c(C3CC(F)(F)C3)nc2Cl)ccc1OCc1ncc(C(F)(F)F)cc1F [Example 354] | 4.44 | 38.8 (≈ 78.9 µM) | 1.1 (≈ 2.24 µM) | 159 to 161 °C |
